# ChEMBL document CHEMBL1268914, “5,6,7,8-Tetrahydropyrido[4,3-d]pyrimidines as novel class of potent and highly selective CaMKII inhibitors” (Bioorg Med Chem Lett, 2010)
# Tests used:
# [1] = Inhibition of CAMK2
# [2] = Inhibition of PKC
# [3] = target: T1, Calcium/calmodulin-dependent protein kinase type IV (Homo sapiens, UniProt Q16566); test: Inhibition of CAMK4
# T1 sequence (Q16566 whole entry): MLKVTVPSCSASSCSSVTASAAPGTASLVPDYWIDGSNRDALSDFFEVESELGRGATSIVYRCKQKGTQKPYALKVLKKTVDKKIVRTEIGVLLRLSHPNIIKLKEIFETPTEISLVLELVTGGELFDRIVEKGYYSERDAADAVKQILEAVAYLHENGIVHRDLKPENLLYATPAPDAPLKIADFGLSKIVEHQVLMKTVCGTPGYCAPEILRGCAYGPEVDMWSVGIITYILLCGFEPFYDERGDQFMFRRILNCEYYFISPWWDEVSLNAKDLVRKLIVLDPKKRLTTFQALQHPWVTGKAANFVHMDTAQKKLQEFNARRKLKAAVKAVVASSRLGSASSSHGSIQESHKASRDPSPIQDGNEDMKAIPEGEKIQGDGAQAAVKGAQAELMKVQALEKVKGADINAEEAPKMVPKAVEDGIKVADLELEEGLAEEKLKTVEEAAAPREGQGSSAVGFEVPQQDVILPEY
# [4] = target: Mitogen-activated protein kinase 14 (Homo sapiens, UniProt Q16539); test: Inhibition of p38alpha
# Sequence of Mitogen-activated protein kinase 14 (Q16539 whole entry): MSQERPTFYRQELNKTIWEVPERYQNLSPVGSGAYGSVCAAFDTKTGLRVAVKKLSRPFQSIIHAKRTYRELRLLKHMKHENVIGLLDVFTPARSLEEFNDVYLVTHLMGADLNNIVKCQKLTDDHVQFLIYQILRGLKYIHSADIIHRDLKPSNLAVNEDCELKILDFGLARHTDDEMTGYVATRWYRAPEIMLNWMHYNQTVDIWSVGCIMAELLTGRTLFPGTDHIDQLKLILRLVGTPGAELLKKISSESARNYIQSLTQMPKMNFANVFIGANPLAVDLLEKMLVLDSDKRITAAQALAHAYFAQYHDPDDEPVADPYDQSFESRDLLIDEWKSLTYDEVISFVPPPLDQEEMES
# [5] = target: RAC-alpha serine/threonine-protein kinase (Homo sapiens, UniProt P31749); test: Inhibition of AKT1
# Sequence of RAC-alpha serine/threonine-protein kinase (P31749 whole entry): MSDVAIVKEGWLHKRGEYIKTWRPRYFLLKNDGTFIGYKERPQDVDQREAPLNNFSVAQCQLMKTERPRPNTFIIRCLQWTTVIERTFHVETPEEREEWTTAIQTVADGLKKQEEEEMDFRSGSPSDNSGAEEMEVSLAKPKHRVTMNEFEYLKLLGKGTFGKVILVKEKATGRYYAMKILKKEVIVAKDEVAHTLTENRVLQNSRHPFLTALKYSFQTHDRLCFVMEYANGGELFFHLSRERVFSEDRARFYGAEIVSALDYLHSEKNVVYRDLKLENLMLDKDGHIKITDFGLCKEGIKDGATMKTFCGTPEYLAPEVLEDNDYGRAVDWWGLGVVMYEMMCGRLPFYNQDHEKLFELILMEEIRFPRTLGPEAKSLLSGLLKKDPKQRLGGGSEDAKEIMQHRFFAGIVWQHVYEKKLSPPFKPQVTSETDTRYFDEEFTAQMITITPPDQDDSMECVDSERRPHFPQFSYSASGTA
# [6] = target: Myosin light chain kinase, smooth muscle (Homo sapiens, UniProt Q15746); test: Inhibition of MLCK
# Sequence of Myosin light chain kinase, smooth muscle (Q15746 whole entry): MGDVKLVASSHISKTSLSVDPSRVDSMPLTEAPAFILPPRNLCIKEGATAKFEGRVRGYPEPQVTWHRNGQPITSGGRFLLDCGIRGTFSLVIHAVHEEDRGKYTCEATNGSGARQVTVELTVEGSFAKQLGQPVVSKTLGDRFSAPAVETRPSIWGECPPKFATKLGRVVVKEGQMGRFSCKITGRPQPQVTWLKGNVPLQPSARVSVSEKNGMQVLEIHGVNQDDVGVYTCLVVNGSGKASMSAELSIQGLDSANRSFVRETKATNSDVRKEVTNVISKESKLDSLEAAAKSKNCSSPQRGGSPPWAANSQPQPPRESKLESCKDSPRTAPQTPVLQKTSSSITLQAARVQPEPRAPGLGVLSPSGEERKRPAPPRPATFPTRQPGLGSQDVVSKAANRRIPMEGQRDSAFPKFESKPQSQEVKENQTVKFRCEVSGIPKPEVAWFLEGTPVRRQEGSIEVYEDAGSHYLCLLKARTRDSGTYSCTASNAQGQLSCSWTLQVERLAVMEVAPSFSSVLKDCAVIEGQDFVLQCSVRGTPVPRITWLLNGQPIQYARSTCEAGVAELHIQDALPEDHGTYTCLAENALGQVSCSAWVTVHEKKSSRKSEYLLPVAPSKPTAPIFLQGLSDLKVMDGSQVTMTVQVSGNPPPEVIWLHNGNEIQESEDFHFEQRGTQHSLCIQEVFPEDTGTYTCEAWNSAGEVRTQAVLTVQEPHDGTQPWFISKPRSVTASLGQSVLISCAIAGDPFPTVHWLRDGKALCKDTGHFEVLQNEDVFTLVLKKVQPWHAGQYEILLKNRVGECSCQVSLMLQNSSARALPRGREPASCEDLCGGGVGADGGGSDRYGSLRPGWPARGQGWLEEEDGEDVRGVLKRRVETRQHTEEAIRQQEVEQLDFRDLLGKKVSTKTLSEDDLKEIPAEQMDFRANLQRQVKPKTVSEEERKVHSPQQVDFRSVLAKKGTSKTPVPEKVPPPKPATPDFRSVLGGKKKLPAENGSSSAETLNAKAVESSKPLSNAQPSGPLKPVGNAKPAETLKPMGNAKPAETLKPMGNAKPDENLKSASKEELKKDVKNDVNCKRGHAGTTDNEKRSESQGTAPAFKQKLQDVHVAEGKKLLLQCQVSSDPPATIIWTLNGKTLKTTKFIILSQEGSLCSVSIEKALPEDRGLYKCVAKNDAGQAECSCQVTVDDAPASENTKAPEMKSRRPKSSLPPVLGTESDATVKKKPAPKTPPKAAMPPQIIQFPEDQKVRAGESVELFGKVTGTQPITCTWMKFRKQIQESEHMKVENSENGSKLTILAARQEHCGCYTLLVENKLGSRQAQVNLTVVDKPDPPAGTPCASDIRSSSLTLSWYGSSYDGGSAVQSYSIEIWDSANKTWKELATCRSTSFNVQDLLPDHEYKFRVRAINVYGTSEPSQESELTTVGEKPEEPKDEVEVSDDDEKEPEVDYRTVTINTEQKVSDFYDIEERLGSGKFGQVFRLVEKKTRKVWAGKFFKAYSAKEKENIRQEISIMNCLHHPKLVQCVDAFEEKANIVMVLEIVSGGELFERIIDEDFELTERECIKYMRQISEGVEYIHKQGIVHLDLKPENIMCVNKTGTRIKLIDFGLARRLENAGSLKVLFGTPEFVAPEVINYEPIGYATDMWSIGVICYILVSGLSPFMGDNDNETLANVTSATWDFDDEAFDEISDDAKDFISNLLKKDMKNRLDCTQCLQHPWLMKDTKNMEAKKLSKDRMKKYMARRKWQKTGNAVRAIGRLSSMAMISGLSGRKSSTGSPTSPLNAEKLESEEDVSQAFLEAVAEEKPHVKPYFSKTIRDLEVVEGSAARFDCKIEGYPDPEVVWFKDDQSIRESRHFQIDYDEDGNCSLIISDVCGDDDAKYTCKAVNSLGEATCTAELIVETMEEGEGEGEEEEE
# [7] = Non-competitive inhibition of CAMK2 by Michaelis-Menten plot
smiles,measurement,setting,value
CS(=O)(=O)Nc1ccnc(NCCc2ccccc2)n1,IC50,[1],60 µM
O=S(=O)(Nc1nc(OCCc2ccccc2)nc2c1CN(Cc1ccccc1)CC2)c1ccc2ccccc2c1,IC50,[1],1.8 µM
Cc1ccccc1S(=O)(=O)Nc1nc(NCCc2ccccc2)nc2c1CN(Cc1ccccc1)CC2,IC50,[1],0.53 µM
Cc1cccc(S(=O)(=O)Nc2nc(NCCc3ccccc3)nc3c2CN(Cc2ccccc2)CC3)c1,IC50,[1],2.4 µM
Cc1ccc(S(=O)(=O)Nc2nc(NCCc3ccccc3)nc3c2CN(Cc2ccccc2)CC3)cc1,IC50,[1],2.7 µM
COc1ccc(S(=O)(=O)Nc2nc(NCCc3ccccc3)nc3c2CN(Cc2ccccc2)CC3)cc1,IC50,[1],3.2 µM
Cc1c(Cl)cccc1S(=O)(=O)Nc1nc(NCCc2ccccc2)nc2c1CN(Cc1ccccc1)CC2,IC50,[2],21 µM
same,IC50,[3],> 60 µM
same,IC50,[4],11 µM
same,IC50,[1],0.063 µM
same,IC50,[5],30 µM
same,IC50,[6],36 µM
Cc1ccc(S(=O)(=O)Nc2nc(NCCc3ccccc3)nc3c2CN(Cc2ccccc2)CC3)cc1Cl,IC50,[1],0.76 µM
O=S(=O)(Nc1ccnc(NCCc2ccccc2)n1)c1ccc(Cl)cc1,IC50,[1],11 µM
same,IC50,[6],51 µM
O=S(=O)(Cc1ccccc1)Nc1ccnc(NCCc2ccccc2)n1,IC50,[1],27 µM
O=S(=O)(Nc1nc(NCCc2ccccc2)nc2c1CCCC2)c1ccc(Cl)cc1,IC50,[1],60 µM
O=S(=O)(Nc1nc(NCCc2ccccc2)nc2c1CN(Cc1ccccc1)CC2)c1ccccc1,IC50,[1],9.7 µM
O=S(=O)(Nc1nc(NCCc2ccccc2)nc2c1CN(Cc1ccccc1)CC2)c1ccc(Cl)cc1,IC50,[1],3.2 µM
CN1CCc2nc(NCCc3ccccc3)nc(NS(=O)(=O)c3ccccc3)c2C1,IC50,[1],10 µM
CN(c1nc(NCCc2ccccc2)nc2c1CN(Cc1ccccc1)CC2)S(=O)(=O)c1ccccc1,IC50,[1],9.3 µM
CCCN(c1nc(NCCc2ccccc2)nc2c1CN(Cc1ccccc1)CC2)S(=O)(=O)c1ccccc1,IC50,[1],> 30 µM
O=S(=O)(Nc1nc(NCCc2ccccc2)nc2c1CN(Cc1ccccc1)CC2)c1ccccc1Cl,IC50,[1],0.92 µM
O=S(=O)(Nc1nc(NCCc2ccccc2)nc2c1CN(Cc1ccccc1)CC2)c1cccc(Cl)c1,IC50,[1],0.42 µM
O=S(=O)(Nc1nc(NCCc2ccccc2)nc2c1CN(Cc1ccccc1)CC2)c1cccc(Cl)c1Cl,IC50,[1],1 µM
O=S(=O)(Nc1nc(NCCc2ccccc2)nc2c1CN(Cc1ccccc1)CC2)c1ccc(Cl)c(Cl)c1,IC50,[1],0.2 µM
O=S(=O)(Nc1nc(NCCc2ccccc2)nc2c1CN(Cc1ccccc1)CC2)c1cccc2ccccc12,IC50,[1],3.3 µM
O=S(=O)(Nc1nc(NCCc2ccccc2)nc2c1CN(Cc1ccccc1)CC2)c1ccc2ccccc2c1,IC50,[2],22 µM
same,IC50,[3],> 60 µM
same,IC50,[4],11 µM
same,IC50,[1],0.16 µM
same,IC50,[5],8.5 µM
same,IC50,[6],0.9 µM
same,Ki,[7],0.926 µM
COc1ccc(S(=O)(=O)N(CCO)c2ccccc2CN(C)C/C=C/c2ccc(Cl)cc2)cc1,IC50,[1],1.6 µM
